Experimental findings from patent US8058475B2, “Substituted cyclohexylmethyl compounds” (Gruenenthal GmbH, priority 2005, dated 2011) are described below.

Where a name gives a salt, the structure may show the parent alone. Read-outs that look alike come from different tables or passages of the source.

Assay [1] addresses T1, Serotonin (5HT) reuptake (Rattus norvegicus, UniProt P31652).
T1 construct: synaptosomes are freshly isolated from areas of rat brain; from tissue; host or cells: rat brain synaptosomes (P2 fraction)
Briefly: Serotonin (5HT) reuptake inhibition in rat brain synaptosomes (P2 fraction). The note with it: read-out: Serotonin reuptake, % inhibition [10 μM]. Type of assay: biochemical. An excerpt: (§1) Noradrenaline (NA) and Serotonin (5HT) Reuptake Inhibition
(§2) In order to be able to carry out these studies in vitro, synaptosomes are freshly isolated from areas of rat brain. A so-called “P2” fraction prepared by the method of Gray and Whittaker (E. G. Gray and V. P. Whittaker (1962) J. Anat. 76, 79-88) is used in each case. For the NA uptake, these vesicular particles are isolated from the hypothalamus of male rat brains.
(§3) A detailed description of the method will be found in the literature (M. Ch. Frink, H. H. Hennies, W. Englberger, M. Haurand and B. Wilffert (1996) Arzneim.-Forsch./Drug Res. 46 (III), 11, 1029-1036).

Assay [2] concerns the target T2, Noradrenaline (NA) reuptake (Rattus norvegicus, UniProt Q63380).
T2 construct: synaptosomes are freshly isolated from areas of rat brain; from tissue; host or cells: rat hypothalamus synaptosomes (P2 fraction)
Put plainly: Noradrenaline (NA) reuptake inhibition in rat brain synaptosomes (hypothalamus, P2 fraction). The assay is classed as biochemical. The note with it: read-out: NA reuptake, % inhibition [10 μM].
Excerpt: as §1, §2, §3

The target in assay [3] is human μ-opiate receptor (Homo sapiens, UniProt P35372). Briefly: Affinity for the human μ-opiate receptor ([3H]-naloxone displacement, SPA, CHO-K1 membrane preparation). The assay is classed as binding. The note with it: for inhibition at 1 µM: read-out: μ-Opioid receptor, % inhibition [1 μM]; for Ki: read-out: μ-Opioid receptor, Ki.
Setting [4] is: 1 μM test substance, inhibition of specific [3H]-naloxone binding.

T1 sequence (P31652 whole entry): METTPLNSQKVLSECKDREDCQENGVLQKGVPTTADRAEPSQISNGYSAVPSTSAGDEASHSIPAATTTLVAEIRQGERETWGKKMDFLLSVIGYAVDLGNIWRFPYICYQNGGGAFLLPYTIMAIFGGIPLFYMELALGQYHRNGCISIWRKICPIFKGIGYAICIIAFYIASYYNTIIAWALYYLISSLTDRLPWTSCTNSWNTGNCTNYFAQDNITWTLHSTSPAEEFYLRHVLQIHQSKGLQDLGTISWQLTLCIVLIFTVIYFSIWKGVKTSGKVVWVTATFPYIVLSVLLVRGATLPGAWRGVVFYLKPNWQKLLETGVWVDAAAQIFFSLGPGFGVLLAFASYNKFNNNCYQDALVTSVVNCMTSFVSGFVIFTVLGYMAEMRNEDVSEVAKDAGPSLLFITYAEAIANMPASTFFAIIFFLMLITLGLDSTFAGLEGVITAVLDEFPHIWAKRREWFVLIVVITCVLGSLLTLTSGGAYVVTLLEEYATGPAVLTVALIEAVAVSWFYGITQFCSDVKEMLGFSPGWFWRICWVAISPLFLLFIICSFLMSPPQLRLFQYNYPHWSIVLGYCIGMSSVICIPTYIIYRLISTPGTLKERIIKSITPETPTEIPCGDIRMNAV
T2 sequence (Q63380 1-617): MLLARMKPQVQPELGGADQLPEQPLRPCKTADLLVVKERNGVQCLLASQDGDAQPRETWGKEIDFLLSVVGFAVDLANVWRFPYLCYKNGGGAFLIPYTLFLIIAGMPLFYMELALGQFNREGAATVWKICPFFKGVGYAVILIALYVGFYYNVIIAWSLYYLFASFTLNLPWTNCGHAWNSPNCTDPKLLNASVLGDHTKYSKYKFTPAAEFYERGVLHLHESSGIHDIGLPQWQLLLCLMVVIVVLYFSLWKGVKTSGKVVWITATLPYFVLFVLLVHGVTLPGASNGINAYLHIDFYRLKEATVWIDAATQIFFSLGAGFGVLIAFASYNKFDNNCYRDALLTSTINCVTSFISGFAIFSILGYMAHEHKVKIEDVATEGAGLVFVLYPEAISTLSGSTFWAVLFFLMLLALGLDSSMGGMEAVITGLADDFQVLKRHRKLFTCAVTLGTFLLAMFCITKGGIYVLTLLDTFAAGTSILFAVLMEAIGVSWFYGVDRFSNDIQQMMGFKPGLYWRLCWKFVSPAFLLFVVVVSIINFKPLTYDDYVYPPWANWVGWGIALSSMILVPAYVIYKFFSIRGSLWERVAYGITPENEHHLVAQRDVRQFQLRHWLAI
human μ-opiate receptor, sequence (P35372 whole entry): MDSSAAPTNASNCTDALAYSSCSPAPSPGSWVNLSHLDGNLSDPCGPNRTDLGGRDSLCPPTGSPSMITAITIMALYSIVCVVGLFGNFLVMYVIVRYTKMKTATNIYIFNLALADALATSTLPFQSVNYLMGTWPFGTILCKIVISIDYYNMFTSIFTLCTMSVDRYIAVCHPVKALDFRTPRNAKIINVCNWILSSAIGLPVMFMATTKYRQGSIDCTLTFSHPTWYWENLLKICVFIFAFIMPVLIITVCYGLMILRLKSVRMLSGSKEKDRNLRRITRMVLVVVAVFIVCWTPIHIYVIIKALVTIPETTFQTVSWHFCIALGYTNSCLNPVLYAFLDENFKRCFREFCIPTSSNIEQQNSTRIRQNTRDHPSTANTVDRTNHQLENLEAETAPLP

One may read the inhibition as the relative decrease from the control value, in per cent. With `CN(C)C(CCc1ccccc1)C1CCC(N)CC1` (stereo not drawn) [compound 27, 4-(1-dimethylamino-3-phenyl-propyl)-cyclohexylamine], the inhibition at 10 µM turned out to be 78% in assay [1] and 95% in assay [2]. As to `O=C(C=C1CCC(C(Cc2ccccc2)N2CCCC2)CC1)NCc1ccccn1` (stereo not drawn) [compound 495, 2-(4-(2-phenyl-1-(pyrrolidin-1-yl)ethyl)cyclohexylidene)-N-(pyridin-2-ylmethyl)acetamide], the values for the inhibition at 10 µM in assay [1] and in assay [2] were 7% and 16%, respectively. With `COCc1noc(C(=O)NCCC2CCC(C(CCc3ccccc3)N(C)C)CC2)n1` (stereo not drawn) [compound 501, 3-methoxymethyl-[1,2,4]oxadiazole-5-carboxylic acid {2-[4-(1-dimethylamino-3-phenyl-propyl)-cyclohexyl]-ethyl}-amide], the inhibition at 10 µM in assay [2] is 106%. `COc1ccc(NC(=O)C=C2CCC(C(c3ccc(C)cc3)N3CCCCC3)CC2)cc1` (stereo not drawn) [compound 493, N-(4-methoxyphenyl)-2-(4-(piperidin-1-yl(p-tolyl)methyl)cyclohexylidene)-acetamide]: the inhibition at 10 µM came out at 38% in assay [1] and 27% in assay [2]. The corresponding values for `CN(C)C(CCc1ccccc1)C1CCC(CN)CC1` (stereo not drawn) [compound 45, [1-(4-aminomethyl-cyclohexyl)-3-phenyl-propyl]-dimethylamine] are 90% and 96%. With `Cc1noc(C(=O)NCCC2CCC(C(c3ccccc3)N(C)C)CC2)n1` (stereo not drawn) [compound 498, 3-methyl-[1,2,4]oxadiazole-5-carboxylic acid {2-[4-(dimethylamino-phenyl-methyl)-cyclohexyl]-ethyl}-amide], in assay [2], the inhibition at 10 µM came out at 99%.

As for `CN(C)C(c1cccc(F)c1)C1CCC(NC(=O)c2nc(CC3CC3)no2)CC1` (stereo not drawn) [compound 500, 3-cyclopropylmethyl-[1,2,4]oxadiazole-5-carboxylic acid {4-[dimethylamino-(3-fluoro-phenyl)-methyl]-cyclohexyl}-amide], the inhibition at 10 µM in assay [2] came out at 101%. Same read-out and setting: to `CN(C)C(c1ccccc1)C1CCC(NC(=O)c2nc(-c3cccs3)no2)CC1` (stereo not drawn) [compound 497, 3-thiophen-2-yl-[1,2,4]oxadiazole-5-carboxylic acid [4-(dimethylamino-phenyl-methyl)-cyclohexyl]-amide] belongs 101%.

In the case of `CN(C)C(c1ccccc1)C1CCC(O)(Cc2ccccc2)CC1` (stereo not drawn) [compound 147, 1-benzyl-4-((dimethylamino)(phenyl)methyl)cyclohexanol hydrochloride], the inhibition at 10 µM in assay [2] is 12%. Take `CN(C)C(c1cccc(F)c1)C1CCC(NC(=O)c2nc(-c3ccccc3)no2)CC1` (stereo not drawn) [compound 499, 3-phenyl-[1,2,4]oxadiazole-5-carboxylic acid {4-[dimethylamino-(3-fluoro-phenyl)-methyl]-cyclohexyl}-amide]: the inhibition at 10 µM in assay [2] was found to be 103%. The Ki is a dissociation constant, usually derived from enzyme kinetics or from competition with a known ligand. For `CN(C)C(c1ccc(F)cc1)C1CCC(CCNC(=O)c2ccccc2F)CC1` (stereo not drawn) [compound 427, N-(2-{4-[dimethylamino-(4-fluoro-phenyl)-methyl]-cyclohexyl}-ethyl)-2-fluoro-benzamide], in assay [3], the inhibition at 1 µM worked out at 84% and the inhibition constant Ki came out at 40 nM. Take `CN(C)C(c1ccc(Cl)cc1)C1CCC(CNC(=O)Cc2cccs2)CC1` (stereo not drawn) [compound 316, N-{4-[(4-chloro-phenyl)-dimethylamino-methyl]-cyclohexylmethyl}-2-thiophen-2-yl-acetamide]: in assay [3], the inhibition at 1 µM came out at 96%. Consider `CN(C)C(c1ccccc1)C1CCC(CCNC(=O)c2ccc(Cl)c(Cl)c2)CC1` (stereo not drawn) [compound 416, 3,4-dichloro-N-{2-[4-(dimethylamino-phenyl-methyl)-cyclohexyl]-ethyl}-benzamide], for which, in assay [3], the inhibition at 1 µM is 86% and the inhibition constant Ki was found to be 19 nM.

For `CN(C)C(c1ccccc1)C1CCC(CNC(=O)c2ccc(F)c(F)c2)CC1` (single isomer, unassigned) [compound 294, N-[4-(dimethylamino-phenyl-methyl)-cyclohexylmethyl]-3,4-difluoro-benzamide], in assay [3], the inhibition at 1 µM was 101% and the Ki turned out to be 8.3 nM. The corresponding values for `COc1c(C(=O)NCC2CCC(C(c3cccc(F)c3)N(C)C)CC2)csc1Cl` (stereo not drawn) [compound 303, 5-chloro-4-methoxy-thiophene-3-carboxylic acid {4-[dimethylamino-(3-fluoro-phenyl)-methyl]-cyclohexylmethyl}-amide] are 99% and 19 nM.

Consider `CCCCC1(O)CCC(C(c2ccc(Cl)cc2)N(C)C)CC1` (stereo not drawn) [compound 167, 1-butyl-4-[(4-chloro-phenyl)-dimethylamino-methyl]-cyclohexanol], for which the inhibition at 1 µM in assay [3] (setting [4]) was found to be 58%. Same read-out and setting: to `CN(C)C(c1ccc(Cl)cc1)C1CCC(O)(c2cccc(F)c2)CC1` (stereo not drawn) [compound 171, 4-[(4-chloro-phenyl)-dimethylamino-methyl]-1-(3-fluoro-phenyl)-cyclohexanol] belongs 67%. `CN(C)C(c1ccccc1)C1CCC(NC(=O)c2csc(-c3ccccc3)n2)CC1` (stereo not drawn) [compound 237, 2-phenyl-thiazole-4-carboxylic acid [4-(dimethylamino-phenyl-methyl)-cyclohexyl]-amide]: in assay [3], the inhibition at 1 µM worked out at 83% and the inhibitory constant (Ki) came out at 48 nM. Regarding `CN(C)C(c1ccc(Cl)cc1)C1CCC(CCNC(=O)c2ccc(F)cc2)CC1` (stereo not drawn) [compound 408, N-(2-{4-[(4-chloro-phenyl)-dimethylamino-methyl]-cyclohexyl}-ethyl)-4-fluoro-benzamide], in assay [3], the inhibition at 1 µM worked out at 82% and the Ki was 12 nM. As to `CN(C)C(c1ccccc1)C1CCC(CCNC(=O)c2cccs2)CC1` (stereo not drawn) [compound 452, thiophene-2-carboxylic acid {2-[4-(dimethylamino-phenyl-methyl)-cyclohexyl]-ethyl}-amide], in assay [3], the inhibition at 1 µM amounted to 99% and the Ki is 12 nM. On the same counts, the results for `CCC(C(=O)NCC1CCC(C(c2ccccc2)N(C)C)CC1)c1ccccc1` (stereo not drawn) [compound 321, N-[4-(dimethylamino-phenyl-methyl)-cyclohexylmethyl]-2-phenyl-butyramide] are 95% and 22 nM.

Regarding `CN(C)C(c1ccc(F)cc1)C1CCC(CCNC(=O)c2cccc(Cl)c2)CC1` (single isomer, unassigned) [compound 422, 3-chloro-N-(2-{4-[dimethylamino-(4-fluoro-phenyl)-methyl]-cyclohexyl}-ethyl)-benzamide], in assay [3], the inhibition at 1 µM came out at 83% and the Ki is 35 nM. On the same counts, the results for `CN(C)C(c1ccc(Cl)cc1)C1CCC(CCNC(=O)c2cccnc2Cl)CC1` (stereo not drawn) [compound 441, 2-chloro-N-(2-{4-[(4-chloro-phenyl)-dimethylamino-methyl]-cyclohexyl}-ethyl)-nicotinamide] are 83% and 200 nM.

On to `Cc1nc(-c2ccccc2)sc1C(=O)NC1CCC(C(c2cccc(F)c2)N(C)C)CC1` (stereo not drawn) [compound 256, 4-methyl-2-phenyl-thiazole-5-carboxylic acid {4-[dimethylamino-(3-fluoro-phenyl)-methyl]-cyclohexyl}-amide], for which, in assay [3], the inhibition at 1 µM amounted to 80% and the Ki was found to be 80 nM. In the case of `Cc1ccc(Oc2ncccc2C(=O)NC2CCC(C(c3cccs3)N(C)C)CC2)cc1` (stereo not drawn) [compound 220, N-[4-(dimethylamino-thiophen-2-yl-methyl)-cyclohexyl]-2-p-tolyloxy-nicotinamide], in assay [3], the inhibition at 1 µM worked out at 88% and the inhibition constant Ki is 150 nM. Consider `CN(C)C(c1cccc(F)c1)C1CCC(CCNC(=O)c2cccc(Cl)c2)CC1` (single isomer, unassigned) [compound 400, 3-chloro-N-(2-{4-[dimethylamino-(3-fluoro-phenyl)-methyl]-cyclohexyl}-ethyl)-benzamide], for which, in assay [3], the inhibition at 1 µM was 94% and the Ki is 23 nM. Turning to `Cc1oc(-c2ccccc2)cc1C(=O)NCC1CCC(C(c2cccc(F)c2)N(C)C)CC1` (stereo not drawn) [compound 373, 2-methyl-5-phenyl-furan-3-carboxylic acid {4-[dimethylamino-(3-fluoro-phenyl)-methyl]-cyclohexylmethyl}-amide], the “μ-Opioid receptor, % inhibition [1 μM]” value in assay [3] (1 µM) was found to be 84%. Moreover, in assay [3], the inhibitory constant (Ki) was 61 nM. On to `CN(C)C(c1ccc(Cl)cc1)C1CCC(O)(Cc2ccccc2)CC1` (stereo not drawn) [compound 159, 1-benzyl-4-[(4-chloro-phenyl)-dimethylamino-methyl]-cyclohexanol], for which the inhibition at 1 µM in assay [3] (setting [4]) is 83%.

As for `COc1cccc(CC(=O)NCCC2CCC(C(c3cccs3)N(C)C)CC2)c1` (stereo not drawn) [compound 454, N-{2-[4-(dimethylamino-thiophen-2-yl-methyl)-cyclohexyl]-ethyl}-2-(3-methoxy-phenyl)-acetamide], in assay [3], the inhibition at 1 µM amounted to 87% and the Ki came to 51 nM. For the molecule `CC(Oc1ccccc1)C(=O)NCC1CCC(C(c2ccc(Cl)cc2)N(C)C)CC1` (stereo not drawn) [compound 391, N-{4-[(4-chloro-phenyl)-dimethylamino-methyl]-cyclohexylmethyl}-2-phenoxy-propionamide], in assay [3], the inhibition at 1 µM came to 81% and the inhibition constant (Ki) stood at 26 nM. `Cc1ccc(Oc2ncccc2C(=O)NCC2CCC(C(c3cccs3)N(C)C)CC2)cc1` (stereo not drawn) [compound 352, N-[4-(dimethylamino-thiophen-2-yl-methyl)-cyclohexylmethyl]-2-p-tolyloxy-nicotinamide]: the inhibition at 1 µM in assay [3] turned out to be 87%.
